Test results published in patent publication US8921582B2, “Oligo- and polyfurans, preparation and uses thereof” (Yeda Research and Development Co. Ltd., priority 2009, dated 2014).
In brackets after ≈: the same amount, converted by molar mass. Read-outs that look alike come from different tables or passages of the source. Each block holds one compound with its values, some of them ahead of it.

Legend:
[1] = Solubility of oligofurans in organic solvent; assay type: physicochemical; details: for solubility: in chloroform (solvent stated)
[2] = Thermogravimetric analysis (TGA) / stability in air; assay type: physicochemical; details: stable in air in the absence of light, FIG. 3
Method: FIG. 3 depicts Thermogravimetric Analysis (TGA) of oligofurans (a) 5F-8F and (b) 9F under N2, rate: 5° C./min.
FIG. 11 depicts thermogravimetric analysis (TGA) of oligofurans 6F, 8F and DH-6F under N2. Rate: 5° C./min.

solubility of 6F relative to corresponding 6T ([1]; in chloroform): over 10 times
solubility ([1]; organic solvent or mixture, read-out: solubility): 700 µg/mL (≈ 1760 µM)
decomposition temperature [2]: 303 °C
Structure (SMILES): c1coc(-c2ccc(-c3ccc(-c4ccc(-c5ccc(-c6ccco6)o5)o4)o3)o2)c1 [6F, α-sexifuran]

solubility [1]: < 50 µg/mL
Structure (SMILES): c1csc(-c2ccc(-c3ccc(-c4ccc(-c5ccc(-c6cccs6)s5)s4)s3)s2)c1 [6T, α-sexithiophene, reference compound]

solubility in warm acetone ([1]; warm acetone, Soxhlet extraction): slightly soluble
Structure (SMILES): c1coc(-c2ccc(-c3ccc(-c4ccc(-c5ccc(-c6ccc(-c7ccc(-c8ccc(-c9ccco9)o8)o7)o6)o5)o4)o3)o2)c1 [9F, α-nonafuran]
